These results are taken from patent US20190101551A1, “Real-time and Continuous Measurement in Vivo Using Aptamer-Based Biosensors” (The Regents of the University of California, priority 2016, published 2019).

Data set [1] is described as follows: Continuous real-time in vivo measurement of drug levels in blood with membrane-protected EAB sensors in the jugular vein of rats. The following applies: anesthetized Sprague-Dawley rats, after each injection.
Procedure: (§1) All in vivo measurements were performed using a two-electrode setup in which the reference and counter electrodes were a silver wire coated with a silver chloride film as described above. The measurements carried out in vivo were recorded using a handheld potentiostat.
(§2) In vivo Experiments Animals. Adult male Sprague-Dawley rats (300-500 g) were pair housed in a temperature and humidity controlled vivarium on a 12-h light-dark cycle and provided ad libitum access to food and water. All animal procedures were consistent with the guidelines of the NIH Guide for Care and Use of Laboratory Animals.
(§3) Surgery. For the anesthetized preparation, rats were anesthetized using isoflurane gas inhalation (2.5%) and monitored throughout the experiment using a pulse oximeter to measure heart rate and % SpO2 to insure depth of anesthesia. After exposing both ventral jugular veins, a simple catheter made from a [sequence] tube (Dow Corning, Midland, Mich., USA) fitted with a steel cannula was implanted into the left jugular vein. 0.1-0.3 mL of heparin (1000 U/mL) were immediately infused through the catheter to prevent blood clotting. The sensor was inserted into the right jugular vein and secured in place with surgical suture.
(§4) Measurements. A 30-minute sensor baseline was established before the first drug infusion. For anesthetized animals, a 3 mL syringe filled with the target drug was connected to the sensor-free catheter (placed in the jugular opposite that in which the sensor is emplaced) and placed in a motorized syringe pump. After establishing a stable baseline, the target drug was infused through this catheter at a rate of 0.2 mL/min. Target drugs included kanamycin (0.1 M solution), gentamicin (10 mg/mL), tobramycin (0.1 M solution), and doxorubicin (1.0 mM). After drug infusion, recordings were taken for up to 2 hours before the next infusion.
(§5) Sensors were fabricated using an aptamer recognizing the aminoglycoside antibiotics. Using these sensors, monotonically increasing intravenous doses of kanamycin were administered spanning the therapeutic ranges used in humans (10-30 mg/kg) and animals (25-30 mg/kg).
(§6) The pharmacokinetics of tobramycin were monitored following sequential 20 mg/kg intravenous injections conducted 2 hours apart in each of three rats.
Another data set is described as follows: in vivo. The conditions noted are these: male, Sprague-Dawley, rat.
The conditions of data set [2]: male, Sprague-Dawley, rat, in vivo, iv.
Procedure: as §1, §2, §3, §4, §5, §6

As a reminder, the Cmax is the peak of the concentration-time curve. As to `COc1cccc2c1C(=O)c1c(O)c3c(c(O)c1C2=O)C[C@@](O)(C(=O)CO)C[C@@H]3O[C@H]1C[C@H](N)[C@H](O)[C@H](C)O1` [DOX, doxorubicin], in data set [1], the “time to effective clearance of 90% of the drug from the circulatory system” value is given as ≤ 50 min. Further, in “in vivo”, the Cmax is ~0.6 µM.

Turning to `NC[C@H]1O[C@H](O[C@H]2[C@H](O)[C@@H](O[C@H]3O[C@H](CO)[C@@H](O)[C@H](N)[C@H]3O)[C@H](N)C[C@@H]2N)[C@H](O)[C@@H](O)[C@@H]1O` [kanamycin], the “maximum concentrations depending on the delivered dose” value in data set [2] fell in the range of 34 to 400 µM. Also, the maximum concentration observed in data set [2] (10 mg/kg) was 200 µM.
